A value given as a limit tells only on which side of the number the result lay.

11 compounds from patent US10351549B2, “Amide derivatives having multimodal activity against pain” (priority 2015, dated 2019) can be followed below.

This assay has as its system human σ1 receptor and human μ-opioid receptor. Nature of the assay: Human σ1 receptor and human μ-opioid receptor radioligand assays (μ and σ1 dual binding). Further details: key to μ and σ1 dual binding: +: Both Ki-μ and Ki-σ1>=500 nM; ++: One Ki<500 nM while the other Ki is >=500 nM; +++: Both Ki-μ and Ki-σ1<500 nM; ++++: Both Ki-μ and K1-σ1<100 nM. Particulars: joint class for Ki at σ1 ([3H](+)-pentazocine, transfected HEK-293 membranes) and Ki at μ-opioid ([3H]-DAMGO, transfected CHO-K1 membranes).
Regarding `CCC(=O)N(CCN1CC2CN(CC(C)C)CC2C1)c1cccc(C(F)(F)F)n1` (centres unmarked) [Example 18, N-(2-(5-isobutylhexahydropyrrolo[3,4-c]pyrrol-2(1H)-yl)ethyl)-N-(6-(trifluoromethyl)pyridin-2-yl)propionamide], the “μ and σ1 dual binding” value is given as “++”. Usually Ki stands for the equilibrium dissociation constant of an inhibitor or competing ligand from its target. As to `CCOCCN(C)C1CCN(CCN(C(=O)CC)c2cccc(C(F)(F)F)n2)C1` (centres unmarked) [Example 17], the Ki is at least 500 nM. On to `CCC(=O)N(CCN1CCC(N(C)Cc2ccccc2)C1)c1ccccc1` (centres unmarked) [Example 2, N-(2-(3-(benzyl(methyl)amino)pyrrolidin-1-yl)ethyl)-N-phenylpropionamide], for which the Ki was under 500 nM.

`CCC(=O)N(CCN1CC[C@@H](N(C)Cc2ccccc2)C1)c1ccccc1` [Example 4, (R)-N-(2-(3-(benzyl(methyl)amino)pyrrolidin-1-yl)ethyl)-N-phenylpropionamide] returned a Ki of under 500 nM. In the case of `CCC(=O)N(CCN1CC[C@H](N(C)Cc2ccccc2)C1)c1ccccc1` [Example 3, (S)-N-(2-(3-(benzyl(methyl)amino)pyrrolidin-1-yl)ethyl)-N-phenylpropionamide], the “μ and σ1 dual binding” value is listed as “++”. `CCOCCN(C)C1CCN(CCN(C(=O)CC)c2cccc(C(F)(F)F)n2)C1` (centres unmarked) [Example 16] had an inhibitory constant (Ki) of at least 500 nM.

With `CCC(=O)N(CCN1CC(N(C)Cc2ccccc2)C1)c1cccc(C(F)(F)F)n1` [Example 9, N-(2-(3-(benzyl(methyl)amino)azetidin-1-yl)ethyl)-N-(6-(trifluoromethyl)pyridin-2-yl)propionamide], the “μ and σ1 dual binding” value is listed as “++”. On to `CCC(=O)N(CCN1CCC(N(C)Cc2ccccc2)C1)c1cccc(C(F)(F)F)n1` (centres unmarked) [Example 6], for which the “μ and σ1 dual binding” value is “++”.

`CCC(=O)N(CCN1CCC(N(C)Cc2ccccc2)C1)c1cccc(C(F)(F)F)n1` (centres unmarked) [Example 5, N-(2-(3-(benzyl(methyl)amino)pyrrolidin-1-yl)ethyl)-N-(6-(trifluoromethyl)pyridin-2-yl)propionamide] displayed an inhibition constant (Ki) of at least 500 nM. For the compound `CCC(=O)N(CCN1CCC(N(C)Cc2ccccc2)C1)c1ncccc1F` (centres unmarked) [Example 1, N-(2-(3-(Benzyl(methyl)amino)pyrrolidin-1-yl)ethyl)-N-(3-fluoropyridin-2-yl)propionamide], the “μ and σ1 dual binding” value is on record as “++”.

On to `CCC(=O)N(CCN1CCC(N(C)CC(C)C)C1)c1cccc(C(F)(F)F)n1` (centres unmarked) [Example 12, N-(2-(3-(isobutyl(methyl)amino)pyrrolidin-1-yl)ethyl)-N-(6-(trifluoromethyl)pyridin-2-yl)propionamide], for which the Ki is at least 500 nM.
